According to ChEMBL document CHEMBL4385638, “Synthesis and biological evaluation of 1-alkylaminomethyl-1,1-bisphosphonic acids against Trypanosoma cruzi and Toxoplasma gondii” (Bioorg Med Chem, 2019):

Tests used:
Toxoplasma gondii [1] = assay: Antiparasitic activity against Toxoplasma gondii tachyzoites infected in human TerT cells assessed as decrease in parasite viability by red fluorescent protein based fluorescence method; format: functional; details: read-out: ED50 (the source's name)
Trypanosoma cruzi = assay: Antiparasitic activity against Trypanosoma cruzi amastigote infected in African green monkey Vero cells decrease in parasite viability measured at day 3 of post infection by red fluorescent protein based fluorescence method; format: functional; details: 72 h, read-out: ED50 (the source's name)
[2] = molecular target: T1, Farnesyl diphosphate synthase (Trypanosoma cruzi, UniProt Q8WS26); assay: Inhibition of Trypanosoma cruzi FPPS using DMAPP as substrate incubated for 30 mins measured by scintillation counting
T1 sequence (Q8WS26 whole entry): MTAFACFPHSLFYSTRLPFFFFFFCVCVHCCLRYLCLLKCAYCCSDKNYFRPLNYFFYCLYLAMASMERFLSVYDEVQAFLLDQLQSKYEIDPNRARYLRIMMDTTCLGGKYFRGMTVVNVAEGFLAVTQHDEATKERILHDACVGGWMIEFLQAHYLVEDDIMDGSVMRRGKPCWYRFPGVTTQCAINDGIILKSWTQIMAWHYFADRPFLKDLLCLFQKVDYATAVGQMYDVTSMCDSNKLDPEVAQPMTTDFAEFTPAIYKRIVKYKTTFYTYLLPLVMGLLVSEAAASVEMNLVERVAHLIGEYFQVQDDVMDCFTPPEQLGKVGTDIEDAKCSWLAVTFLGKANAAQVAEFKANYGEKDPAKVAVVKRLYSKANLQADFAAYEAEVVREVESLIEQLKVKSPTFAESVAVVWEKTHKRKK

[3] = molecular target: T2, Farnesyl diphosphate synthase (Toxoplasma gondii, UniProt Q197X6); assay: Inhibition of Toxoplasma gondii FPPS using DMAPP as substrate incubated for 30 mins measured by scintillation counting
T2 sequence (Q197X6 whole entry): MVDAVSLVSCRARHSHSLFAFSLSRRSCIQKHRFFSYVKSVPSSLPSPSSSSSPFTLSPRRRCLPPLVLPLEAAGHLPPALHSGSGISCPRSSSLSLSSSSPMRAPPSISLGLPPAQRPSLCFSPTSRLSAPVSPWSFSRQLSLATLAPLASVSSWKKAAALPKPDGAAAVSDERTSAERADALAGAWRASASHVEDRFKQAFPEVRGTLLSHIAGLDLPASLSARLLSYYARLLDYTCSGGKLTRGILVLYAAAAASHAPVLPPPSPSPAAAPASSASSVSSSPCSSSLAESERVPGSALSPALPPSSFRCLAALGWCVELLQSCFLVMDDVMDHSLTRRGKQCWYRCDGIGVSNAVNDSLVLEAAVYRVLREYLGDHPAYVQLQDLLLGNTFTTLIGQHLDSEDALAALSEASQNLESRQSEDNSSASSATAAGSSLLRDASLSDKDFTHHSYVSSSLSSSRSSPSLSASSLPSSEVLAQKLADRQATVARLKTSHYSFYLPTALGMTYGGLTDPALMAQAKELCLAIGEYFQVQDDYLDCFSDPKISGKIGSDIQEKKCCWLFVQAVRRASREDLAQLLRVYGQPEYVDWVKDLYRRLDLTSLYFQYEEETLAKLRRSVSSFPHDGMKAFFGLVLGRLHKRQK

Toxoplasma gondii [4] = assay: Antiparasitic activity against Toxoplasma gondii RH tachyzoites infected in ip dosed Webster mouse assessed as increase in survival rate administered daily starting on day 6 post infection for 10 days and measured 30 days post infection (reference value: 9 to 12 days); format: functional
[5] = Cytotoxicity against African green monkey Vero cells assessed as decrease in cell viability after 3 to 4 days by alamar blue assay; format: cell-based; details: chlorocebus sabaeus, read-out: ED50 (the source's name)
Vero [6] = assay: Cytotoxicity against African green monkey Vero cells assessed as decrease in cell viability at 5 to 10 uM after 3 to 4 days by alamar blue assay; format: cell-based; details: chlorocebus sabaeus
Vero [7] = assay: Cytotoxicity against African green monkey Vero cells assessed as decrease in cell viability at 2.5 uM after 3 to 4 days by alamar blue assay; format: cell-based; details: chlorocebus sabaeus

Structure (SMILES) | EC50 (Toxoplasma gondii [1]) | EC50 (Trypanosoma cruzi) | IC50 [2] | IC50 [3] | other results
CCCCCCCCCCCCNCC(P(=O)(O)O)P(=O)(O)O | 6230 nM | – | – | – | –
CCCCCCCC[S+](C)CC(P(=O)(O)O)P(=O)(O)O (centres undefined) | 7000 nM | – | – | – | –
CCCCCCCSCC(P(=O)(O)O)P(=O)(O)O | 970 nM | > 20000 nM | – | – | –
CCCCCCCCCCSCC(P(=O)(O)O)P(=O)(O)O | 1800 nM | – | – | – | –
CCCCCCNCC(P(=O)(O)O)P(=O)(O)O | 9400 nM | – | – | – | –
CCCCCCCNCC(P(=O)(O)O)P(=O)(O)O | > 50000 nM | 10000 nM | – | – | –
CCCCCCCCC(F)(P(=O)(O)O)P(=O)(O)O | 2670 nM | > 10000 nM | > 1000 nM | – | –
CCCCCCCCCC(F)(P(=O)(O)O)P(=O)(O)O | > 10000 nM | > 10000 nM | > 1000 nM | – | –
CCCCCCCCNCC(O)(P(=O)(O)O)P(=O)(O)O | 2000 nM | > 10000 nM | > 10000 nM | – | –
O=P(O)(O)C(CNC1CCCC1)P(=O)(O)O | > 20000 nM | – | – | – | –
CCCCCCCCCCS(=O)(=O)CC(P(=O)(O)O)P(=O)(O)O | 110 nM | – | – | 270 nM | ED50 (Toxoplasma gondii [4]): 0.02 mg/kg
O=P(O)(O)C(CNC1CCCCCC1)P(=O)(O)O | > 20000 nM | – | – | – | –
CCCCCCNCC(F)(P(=O)(O)O)P(=O)(O)O | > 10000 nM | > 10000 nM | 915 nM | 131 nM | –
CCCCCCCCCCCCS(=O)(=O)CC(P(=O)(O)O)P(=O)(O)O | 930 nM | – | – | – | –
CCCCCCCCCNCC(F)(P(=O)(O)O)P(=O)(O)O | 2240 nM | – | 34 nM | 51 nM | CC50 [5]: 15000 nM
CCCCCCCNCC(F)(P(=O)(O)O)P(=O)(O)O | > 10000 nM | > 10000 nM | 71 nM | 88 nM | –
CC1CCC(NCC(P(=O)(O)O)P(=O)(O)O)CC1 (centres undefined) | > 20000 nM | – | – | – | –
CCCCCCCCNCC(F)(P(=O)(O)O)P(=O)(O)O | 4010 nM | > 10000 nM | 85 nM | 79 nM | CC50 [5]: 162000 nM
CCCCCCCCCCCS(=O)(=O)CC(P(=O)(O)O)P(=O)(O)O | 380 nM | – | – | – | –
CCCCCCCCCCNCC(F)(P(=O)(O)O)P(=O)(O)O | 2260 nM | – | 136 nM | 80 nM | CC50 [5]: 20000 nM
CCCCCCCCCCCSCC(P(=O)(O)O)P(=O)(O)O | 540 nM | – | – | – | –
CCCNCC(F)(P(=O)(O)O)P(=O)(O)O | – | > 10000 nM | 60 nM | 245 nM | –
CCCCCNCC(F)(P(=O)(O)O)P(=O)(O)O | > 10000 nM | > 10000 nM | 611 nM | 299 nM | –
CCCCCCCCCCCNC(P(=O)(O)O)P(=O)(O)O | – | – | – | – | CC50 [5]: 10000 nM; Activity (Vero [6]): Toxic; Activity (Vero [7]): Non-Toxic
CCCCCCCCCCC[S+]([O-])CC(P(=O)(O)O)P(=O)(O)O (centres undefined) | 530 nM | – | – | – | –
CCCCNCC(F)(P(=O)(O)O)P(=O)(O)O | > 10000 nM | > 10000 nM | 173 nM | 286 nM | CC50 [5]: > 200000 nM
O=C(Cn1ccnc1[N+](=O)[O-])NCc1ccccc1 [BENZNIDAZOLE] | – | 2580 nM | – | – | –
